# Measured values: patent publication US7846939B2, “Salts and mixture of 9-oxoacridine-10-acetic acid with 1-alkylamino-1-desoxy-polyols, pharmaceutical compositions containing said agents and treatment methods” (priority 2005, dated 2010)
# Test system: Chlamydia
# Assay: Chronic inflammatory diseases of uterus and appendages, 250 mg i.m., 10 injections, with BAT (ofloxacin)
# Type: in vivo, human
smiles,measurement,setting,value
"CC1COc2c(N3CCN(C)CC3)c(F)cc3c(=O)c(C(=O)O)cn1c23 (stereo not drawn) [Basic antibacterial therapy, BAT, ofloxacin]","Alpha-interferon, produced by the peripheral blood leukocytes, induced in culture by the Newcastle disease virus, mean",After treatment,5.3 log2 IU/ml
same,"Amount of cytoplasmic granules in peripheral blood PNLs, mean",After treatment,10.2
same,"Gamma-interferon, produced by the peripheral blood leukocytes, induced in culture by staphylococcus enterotoxin A, mean",After treatment,4.7 log2 IU/ml
same,"Serum interferon, mean",After treatment,0.8 log2 IU/ml
same,"Alpha-interferon, produced by the peripheral blood leukocytes, induced in culture by the Newcastle disease virus, mean",Before treatment,5.1 log2 IU/ml
same,"Amount of cytoplasmic granules in peripheral blood PNLs, mean",Before treatment,8.5
same,"Gamma-interferon, produced by the peripheral blood leukocytes, induced in culture by staphylococcus enterotoxin A, mean",Before treatment,4.7 log2 IU/ml
same,"Serum interferon, mean",Before treatment,0.2 log2 IU/ml
same,Etiological recovery,PCR control,69%
